Source: patent US8258114B2, “Modulation of glucose-6-phosphatase translocase expression” (Isis Pharmaceuticals, Inc., priority 2004, dated 2012)

Columns and labels:
Assay type in all cases: in vivo, mouse
[1] = Liver triglycerides and glycogen stores in db/db mice (Table 8)
Experimental: Seven-week old male C57B1/6J-Lepr db/db mice (Jackson Laboratory, Bar Harbor, Me.) were fed a diet with a fat content of about 14% (Formulab Diet 5008) and were subcutaneously injected with ISIS 116847 (SEQ ID NO: 143), ISIS 141923 (SEQ ID NO: 144), or ISIS 148985 (SEQ ID NO: 118), an antisense inhibitor of glucose-6-phosphatase translocase, […] […] Saline-injected animals served as controls. 48 hours after the eighth and final dose was administered, mice were sacrificed and target levels were evaluated in liver. RNA isolation and target mRNA expression level quantitation were performed as described by other examples herein.
Patients with the human glycogen storage disease type 1b have mutations in the glucose-6-phosphatase translocase gene. Because one manifestation of these mutations is a defect in hepatic glycogen deposition, the db/db mice were further evaluated at the end of the treatment period for liver glycogen stores. Tissue glycogen levels were measured using the Glucose Trinder Reagent (Sigma-Aldrich, St. Louis, Mo.). Tissue triglyceride levels were measured using a Triglyceride GPO Assay from Roche Diagnostics (Indianapolis, Ind.). Liver triglyceride levels were used to assess hepatic steatosis, or accumulation of lipids in the liver. Hepatic steatosis was also assessed by routine histological analysis of frozen liver tissue sections stained with oil red 0 stain, which is commonly used to visualize lipid deposits, and counterstained with hematoxylin and eosin, to visualize nuclei and cytoplasm, respectively. Data are presented in Table 8 as the averages from 5 animals per treatment group.

[2] = Plasma triglycerides, cholesterol, free fatty acids, transaminases and lactate in db/db mice (Table 7)
Experimental: Seven-week old male C57B1/6J-Lepr db/db mice (Jackson Laboratory, Bar Harbor, Me.) were fed a diet with a fat content of about 14% (Formulab Diet 5008) and were subcutaneously injected with ISIS 116847 (SEQ ID NO: 143), ISIS 141923 (SEQ ID NO: 144), or ISIS 148985 (SEQ ID NO: 118), an antisense inhibitor of glucose-6-phosphatase translocase, […] weeks. […] Saline-injected animals served as controls. 48 hours after the eighth and final dose was administered, mice were sacrificed and target levels were evaluated in liver. RNA isolation and target mRNA expression level quantitation were performed as described by other examples herein.
To further assess the physiological effects resulting from inhibition of target mRNA, the db/db mice were evaluated at the end of the treatment period for plasma triglycerides, plasma cholesterol, free fatty acids (FFA), lactate and plasma transaminase levels. The transaminases ALT and AST are indicators of liver function. Plasma triglycerides, cholesterol, free fatty acids, and transaminases were measured by routine clinical analyzer instruments (e.g. Olympus Clinical Analyzer, Melville, N.Y.). Results are presented in table 7 as the averages from seven animals per treatment group.

db/db mice = assay: Fed and fasted plasma glucose in db/db mice (Example 10); details: 25 mg/kg s.c. twice weekly; for fasted plasma glucose: week 3, overnight fast, saline 343
Experimental: Seven-week old male C57B1/6J-Lepr db/db mice (Jackson Laboratory, Bar Harbor, Me.) were fed a diet with a fat content of about 14% and were subcutaneously injected with one or more of the oligomeric compounds of the invention or a control compound at a dose of 25 mg/kg two times per week. Glucose-6-phosphatase translocase antisense oligonucleotides used were ISIS 148985 (SEQ ID NO: 118) and ISIS 149008 (SEQ ID NO: 141). ISIS 116847 (SEQ ID NO: 143), targeted to mouse PTEN, was used as a positive control. The scrambled control oligonucleotide ISIS 141923 ([…], incorporated herein as SEQ ID NO: 144) served as a negative control along with saline-injected animals. ISIS 141923 and ISIS 116847 are chimeric oligonucleotides (“gapmers”) 20 nucleotides in length, composed of a central “gap” region consisting of 10 2′-deoxynucleotides, which is flanked on both sides (5′ and 3′) by five-nucleotide “wings”. The wings are composed of 2′-O-(2-methoxyethyl) nucleotides, also known as 2′-MOE nucleotides. The internucleoside (backbone) linkages are phosphorothioate throughout the oligonucleotide. All cytidine residues are 5-methylcytidines.
The effects of target inhibition on glucose metabolism were evaluated in the db/db mice treated with the oligomeric compounds of the invention. For seven animals per treatment group, plasma glucose (fed) was measured prior to the start of the treatment (week 0) and during weeks 2 and 4 of treatment. Fasted glucose measurements were made during week three, after animals were fasted overnight (about 15 hours). Data are expressed as the averages per treatment group.

[3] = tested on: glucose-6-phosphatase translocase mRNA; assay: Target mRNA reduction in liver of db/db mice, dose-response study
Experimental: Seven-week old male C57B1/6J-Lepr db/db mice (Jackson Laboratory, Bar Harbor, Me.) were fed a diet with a fat content of about 14% (Formulab Diet 5008) and were subcutaneously injected with ISIS 116847 (SEQ ID NO: 143), ISIS 141923 (SEQ ID NO: 144), or ISIS 148985 (SEQ ID NO: 118), an antisense inhibitor of glucose-6-phosphatase translocase, at a dose of 25 mg/kg two times per week for 4 weeks. […] Saline-injected animals served as controls. 48 hours after the eighth and final dose was administered, mice were sacrificed and target levels were evaluated in liver. RNA isolation and target mRNA expression level quantitation were performed as described by other examples herein.
Glucose-6-phosphatase translocase mRNA levels in db/db mouse livers were measured at the end of study using RIBOGREEN™ RNA quantification reagent (Molecular Probes, Inc. Eugene, Oreg.) as taught in previous examples above. Data are expressed as the average of 5 animals per treatment group. […] Target mRNA levels were reduced by approximately 21% by ISIS 148985. […] Therefore, antisense inhibitors of glucose-6-phosphatase translocase reduced target mRNA levels in the liver of db/db mice, and ISIS 149008 did so in a dose-dependent manner.

[4] = 25 mg/kg twice weekly 4 weeks (25 mg/mL [sic]), saline 25
[5] = 25 mg/kg twice weekly 4 weeks (25 mg/mL [sic]), saline 47
[6] = 25 mg/kg twice weekly 4 weeks (25 mg/mL [sic]), saline 0.8
[7] = 25 mg/kg twice weekly 4 weeks (25 mg/mL [sic]), saline 56
[8] = 25 mg/kg twice weekly 4 weeks (25 mg/mL [sic]), saline 59
[9] = 25 mg/kg twice weekly 4 weeks (25 mg/mL [sic]), saline 108
[10] = 25 mg/kg twice weekly 4 weeks (25 mg/mL [sic]), saline 152
[11] = 25 mg/kg twice weekly 4 weeks (25 mg/mL [sic]), saline 213
[12] = 25 mg/kg twice weekly for 4 weeks
[13] = dose 12.5 mg/mL [sic], twice weekly 4 weeks
[14] = dose printed 6 mg/mL, twice weekly 4 weeks

For “CCTTCCCTGAAGGTTCCTCC (chemistry not given here) [ISIS 141923, scrambled control oligonucleotide, negative control, reference compound]”, the “Liver Triglycerides” value [1, 4] was 30 mg/g, the “Liver Glycogen” value [1, 5] was 43 mg/g and the “Free Fatty Acids” value [2, 6] was 0.9 mEq/L. The ALT [2, 7] was 72 IU/L, the AST [2, 8] was 56 IU/L and the Lactate [2, 9] was 128 mg/dL. For the same sequence, the Cholesterol [2, 10] was 167 mg/dL, the “Plasma Triglycerides” value [2, 11] was 166 mg/dL and the fed plasma glucose (db/db mice; week 0, saline 270) was “approximately 272 mg/dL”. The fed plasma glucose (db/db mice; week 2, saline 534) was roughly 538 mg/dL, the fasted plasma glucose (db/db mice) was “approximately 287 mg/dL” and the fed plasma glucose (db/db mice; week 4, saline 627) was roughly 563 mg/dL. The “Glucose-6-phosphatase translocase mRNA levels in liver, reduction compared to saline” value [3, 12] was “approximately 1%”.
For “CTGCTAGCCTCTGGATTTGA (chemistry not given here) [ISIS 116847, positive control oligonucleotide targeted to mouse PTEN, reference compound]”, the “Liver Triglycerides” value [1, 4] was 67 mg/g, the “Liver Glycogen” value [1, 5] was 39 mg/g and the “Free Fatty Acids” value [2, 6] was 0.8 mEq/L. It also gave an ALT [2, 7] of 70 IU/L, an AST [2, 8] of 62 IU/L and a Lactate [2, 9] of 131 mg/dL. The Cholesterol [2, 10] was 161 mg/dL, the “Plasma Triglycerides” value [2, 11] was 166 mg/dL and the fed plasma glucose (db/db mice; week 0, saline 270) was “approximately 267 mg/dL”. The fed plasma glucose (db/db mice; week 2, saline 534) was roughly 360 mg/dL, the fasted plasma glucose (db/db mice) was “approximately 241 mg/dL” and the fed plasma glucose (db/db mice; week 4, saline 627) was roughly 334 mg/dL. For the same sequence, the “Glucose-6-phosphatase translocase mRNA levels in liver, reduction compared to saline” value [3, 12] was “approximately 27%”.
In the case of “GCTCCATAGCGAGGACTCGA (chemistry not given here) [ISIS 148985]”, the “Liver Glycogen” value [1, 5] is reported as 47 mg/g, the “Free Fatty Acids” value [2, 6] is reported as 1.1 mEq/L and the ALT [2, 7] is reported as 73 IU/L. For the same sequence, the AST [2, 8] was 48 IU/L, the Lactate [2, 9] was 105 mg/dL and the Cholesterol [2, 10] was 164 mg/dL. For the same sequence, the “Plasma Triglycerides” value [2, 11] was 202 mg/dL, the fed plasma glucose (db/db mice; week 0, saline 270) was “approximately 267 mg/dL” and the fed plasma glucose (db/db mice; week 2, saline 534) was roughly 512 mg/dL. For the same sequence, the fasted plasma glucose (db/db mice) was “approximately 288 mg/dL”, the fed plasma glucose (db/db mice; week 4, saline 627) was roughly 552 mg/dL and the “Glucose-6-phosphatase translocase mRNA levels in liver, reduction compared to saline” value [3, 12] was “approximately 21%”.
With “TATACAAGTCGGTTTGCCCT (chemistry not given here) [ISIS 149008]” the “Liver Triglycerides” value [1, 4] was 58 mg/g, the “Liver Glycogen” value [1, 5] was 45 mg/g and the “Liver Glycogen” value ([1]; dose 12.5 mg/mL [sic]) was 45 mg/g. The “Liver Triglycerides” value ([1]; dose 12.5 mg/mL [sic]) was 41 mg/g, the “Liver Glycogen” value ([1]; dose printed 6 mg/mL) was 48 mg/g and the “Liver Triglycerides” value ([1]; dose printed 6 mg/mL) was 33 mg/g. For the same sequence, the “Free Fatty Acids” value [2, 6] was 0.9 mEq/L, the ALT [2, 7] was 68 IU/L and the AST [2, 8] was 55 IU/L. The Lactate [2, 9] was 129 mg/dL, the Cholesterol [2, 10] was 167 mg/dL and the “Plasma Triglycerides” value [2, 11] was 197 mg/dL. The ALT [2, 13] was 64 IU/L, the AST [2, 13] was 56 IU/L and the Cholesterol [2, 13] was 172 mg/dL. The “Free Fatty Acids” value [2, 13] was 1.0 mEq/L, the Lactate [2, 13] was 127 mg/dL and the “Plasma Triglycerides” value [2, 13] was 247 mg/dL. It also gave an ALT [2, 14] of 59 IU/L, an AST [2, 14] of 49 IU/L and a Cholesterol [2, 14] of 158 mg/dL. The “Free Fatty Acids” value [2, 14] was 0.9 mEq/L, the Lactate [2, 14] was 125 mg/dL and the “Plasma Triglycerides” value [2, 14] was 205 mg/dL. The fed plasma glucose (db/db mice; week 0, saline 270) was “approximately 272 mg/dL”, the fed plasma glucose (db/db mice; week 2, saline 534) was roughly 390 mg/dL and the fasted plasma glucose (db/db mice) was “approximately 241 mg/dL”. For the same sequence, the fed plasma glucose (db/db mice; week 4, saline 627) was roughly 347 mg/dL, the “Glucose-6-phosphatase translocase mRNA levels in liver, reduction compared to saline” value ([3]; 6.25 mg/kg twice weekly for 4 weeks) was “approximately 45%” and the “Glucose-6-phosphatase translocase mRNA levels in liver, reduction compared to saline” value ([3]; 12.5 mg/kg twice weekly for 4 weeks) was “approximately 69%”. For the same sequence, the “Glucose-6-phosphatase translocase mRNA levels in liver, reduction compared to saline” value [3, 12] was “approximately 81%”.
